For the series the following is noted: 101 kPa, Liquid.

± gives the expanded uncertainty stated by the source.

In general, mass density refers to mass per unit of volume. As to `CC(O)CO` (stereo not given) [1,2-propanediol], the mass density stood at 1032.5 ± 1.6 kg/m3 (298.15 K); 1029.2 ± 1.6 kg/m3 (303.15 K); 1025.3 ± 1.7 kg/m3 (308.15 K); 1021.5 ± 1.8 kg/m3 (313.15 K); 1018 ± 1.8 kg/m3 (318.15 K); 1014 ± 1.9 kg/m3 (323.15 K). Moreover, the mass density runs as follows: (328.15 K) 1010.2 ± 1.9 kg/m3; (333.15 K) 1006.2 ± 2 kg/m3.
Turning to `OCC(O)CO` [glycerol], the mass density runs as follows: (298.15 K) 1258.9 ± 2 kg/m3; (303.15 K) 1255.6 ± 2 kg/m3; (308.15 K) 1252.7 ± 2.1 kg/m3; (313.15 K) 1249.5 ± 2.1 kg/m3; (318.15 K) 1246.2 ± 2.2 kg/m3; (323.15 K) 1242.9 ± 2.3 kg/m3. Further, the mass density reads like this: (328.15 K) 1239.6 ± 2.3 kg/m3; (333.15 K) 1236 ± 2.4 kg/m3.
For the compound `OCCCO` [propan-1,3-diol], the mass density is, setting by setting: (298.15 K) 1049.9 ± 1.6 kg/m3; (303.15 K) 1047 ± 1.7 kg/m3; (308.15 K) 1044.1 ± 1.8 kg/m3; (313.15 K) 1040.8 ± 1.8 kg/m3; (318.15 K) 1037.8 ± 1.9 kg/m3; (323.15 K) 1034.8 ± 2 kg/m3. Besides, the mass density is, setting by setting: (328.15 K) 1031.4 ± 2 kg/m3; (333.15 K) 1028.2 ± 2.1 kg/m3.
For `CCCO` [propan-1-ol], the mass density (298.15 K) stood at 799.6 ± 1.2 kg/m3; the mass density (303.15 K) amounted to 795.5 ± 1.2 kg/m3; the mass density (308.15 K) was found to be 791.5 ± 1.3 kg/m3; the mass density (313.15 K) is 787.3 ± 1.3 kg/m3; the mass density (318.15 K) turned out to be 783.3 ± 1.4 kg/m3; the mass density (323.15 K) was 779 ± 1.4 kg/m3. In addition, the mass density was determined as 774.9 ± 1.5 kg/m3 (328.15 K) and 770.8 ± 1.6 kg/m3 (333.15 K).
On to `CC(C)O` [propan-2-ol], for which the mass density by setting is: (298.15 K) 780.6 ± 1.2 kg/m3; (303.15 K) 776.6 ± 1.2 kg/m3; (308.15 K) 772.3 ± 1.3 kg/m3; (313.15 K) 767.9 ± 1.3 kg/m3; (318.15 K) 763.3 ± 1.3 kg/m3; (323.15 K) 758.6 ± 1.4 kg/m3. Besides, the mass density is 753.8 ± 1.4 kg/m3 (328.15 K) and 748.9 ± 1.5 kg/m3 (333.15 K).

Values taken from the NIST ThermoML archive (doi:10.1021/je060496l).
